Data reported in PubChem BioAssay (NCI).
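These data come from cells grown in 96-well plates and exposed to compound for 48 hours at five concentrations. TGI marks complete inhibition of growth.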

Key:
Assay in all cases: growth of human tumour cells (NCI), 48 h
NCI-H23 lung = test system: NCI-H23 lung
CCRF-CEM leukemia = test system: CCRF-CEM leukemia
NCI-H460 lung = test system: NCI-H460 lung
KM12 colon = test system: KM12 colon
OVCAR-5 ovarian = test system: OVCAR-5 ovarian
786-0 renal = test system: 786-0 renal
MDA-MB-231 breast = test system: MDA-MB-231 breast
HCT-116 colon = test system: HCT-116 colon
BT-549 breast = test system: BT-549 breast
K-562 leukemia = test system: K-562 leukemia
OVCAR-3 ovarian = test system: OVCAR-3 ovarian
SN12C renal = test system: SN12C renal
IGROV1 ovarian = test system: IGROV1 ovarian
LOX IMVI melanoma = test system: LOX IMVI melanoma
CAKI-1 renal = test system: CAKI-1 renal
HOP-92 NSCLC = test system: HOP-92 NSCLC
SW-620 colon = test system: SW-620 colon
UACC-257 melanoma = test system: UACC-257 melanoma
A498 renal = test system: A498 renal
RPMI-8226 leukemia = test system: RPMI-8226 leukemia
SNB-19 CNS = test system: SNB-19 CNS
RXF 393 renal = test system: RXF 393 renal
MDA-MB-435 = test system: MDA-MB-435
PC-3 prostate = test system: PC-3 prostate
HCT-15 colon = test system: HCT-15 colon
HOP-62 NSCLC = test system: HOP-62 NSCLC
SNB-75 CNS = test system: SNB-75 CNS
DU-145 prostate = test system: DU-145 prostate
SK-MEL-28 melanoma = test system: SK-MEL-28 melanoma
SK-OV-3 ovarian = test system: SK-OV-3 ovarian
MCF7 breast = test system: MCF7 breast
OVCAR-4 ovarian = test system: OVCAR-4 ovarian
SK-MEL-2 melanoma = test system: SK-MEL-2 melanoma
MALME-3M melanoma = test system: MALME-3M melanoma
HL-60(TB) leukemia = test system: HL-60(TB) leukemia
SF-268 CNS = test system: SF-268 CNS
SF-539 CNS = test system: SF-539 CNS
SK-MEL-5 melanoma = test system: SK-MEL-5 melanoma
SR leukemia = test system: SR leukemia
TK-10 renal = test system: TK-10 renal
NCI-H226 lung = test system: NCI-H226 lung
M14 melanoma = test system: M14 melanoma
ACHN renal = test system: ACHN renal
OVCAR-8 ovarian = test system: OVCAR-8 ovarian
COLO 205 colon = test system: COLO 205 colon
UACC-62 melanoma = test system: UACC-62 melanoma
NCI/ADR-RES ovarian = test system: NCI/ADR-RES ovarian
SF-295 CNS = test system: SF-295 CNS
HCC-2998 colon = test system: HCC-2998 colon
HS 578T breast = test system: HS 578T breast
NCI-H522 lung = test system: NCI-H522 lung
UO-31 renal = test system: UO-31 renal
T-47D breast = test system: T-47D breast
EKVX NSCLC = test system: EKVX NSCLC
U251 CNS = test system: U251 CNS
MOLT-4 leukemia = test system: MOLT-4 leukemia
HT29 colon = test system: HT29 colon
A549 NSCLC = test system: A549 NSCLC
MDA-N = test system: MDA-N

`CNC(=O)C(C)NC(=O)C(Cc1ccccc1)NC(=O)c1ccccc1` (configuration not stated) showed a TGI (NCI-H23 lung) greater than 100 µM, a TGI (CCRF-CEM leukemia) greater than 100 µM and a TGI (NCI-H460 lung) greater than 100 µM. For the same compound, the TGI (KM12 colon) was greater than 100 µM, the TGI (OVCAR-5 ovarian) was greater than 100 µM and the TGI (786-0 renal) was greater than 100 µM. For the same compound, the TGI (MDA-MB-231 breast) was greater than 100 µM, the TGI (HCT-116 colon) was greater than 100 µM and the TGI (BT-549 breast) was greater than 100 µM. It also gave a TGI (K-562 leukemia) greater than 100 µM, a TGI (OVCAR-3 ovarian) greater than 100 µM and a TGI (SN12C renal) greater than 100 µM. It also gave a TGI (IGROV1 ovarian) greater than 100 µM, a TGI (LOX IMVI melanoma) greater than 100 µM and a TGI (CAKI-1 renal) greater than 100 µM. For the same compound, the TGI (HOP-92 NSCLC) was greater than 100 µM, the TGI (SW-620 colon) was greater than 100 µM and the TGI (UACC-257 melanoma) was greater than 100 µM. For the same compound, the TGI (A498 renal) was greater than 100 µM, the TGI (RPMI-8226 leukemia) was greater than 100 µM and the TGI (SNB-19 CNS) was greater than 100 µM. It also gave a TGI (RXF 393 renal) greater than 100 µM, a TGI (MDA-MB-435) greater than 100 µM and a TGI (PC-3 prostate) greater than 100 µM. The TGI (HCT-15 colon) was greater than 100 µM, the TGI (HOP-62 NSCLC) was greater than 100 µM and the TGI (SNB-75 CNS) was greater than 100 µM. It also gave a TGI (DU-145 prostate) greater than 100 µM, a TGI (SK-MEL-28 melanoma) greater than 100 µM and a TGI (SK-OV-3 ovarian) greater than 100 µM. It also gave a TGI (MCF7 breast) greater than 100 µM, a TGI (OVCAR-4 ovarian) greater than 100 µM and a TGI (SK-MEL-2 melanoma) greater than 100 µM. It also gave a TGI (MALME-3M melanoma) greater than 100 µM, a TGI (HL-60(TB) leukemia) greater than 100 µM and a TGI (SF-268 CNS) greater than 100 µM. The TGI (SF-539 CNS) was greater than 100 µM, the TGI (SK-MEL-5 melanoma) was greater than 100 µM and the TGI (SR leukemia) was greater than 100 µM. The TGI (TK-10 renal) was greater than 100 µM, the TGI (NCI-H226 lung) was greater than 100 µM and the TGI (M14 melanoma) was greater than 100 µM. The TGI (ACHN renal) was greater than 100 µM, the TGI (OVCAR-8 ovarian) was greater than 100 µM and the TGI (COLO 205 colon) was greater than 100 µM. It also gave a TGI (UACC-62 melanoma) greater than 100 µM, a TGI (NCI/ADR-RES ovarian) greater than 100 µM and a TGI (SF-295 CNS) greater than 100 µM. For the same compound, the TGI (HCC-2998 colon) was greater than 100 µM, the TGI (HS 578T breast) was greater than 100 µM and the TGI (NCI-H522 lung) was greater than 100 µM. The TGI (UO-31 renal) was greater than 100 µM, the TGI (T-47D breast) was greater than 100 µM and the TGI (EKVX NSCLC) was greater than 100 µM. It also gave a TGI (U251 CNS) greater than 100 µM, a TGI (MOLT-4 leukemia) greater than 100 µM and a TGI (HT29 colon) greater than 100 µM. The TGI (A549 NSCLC) was greater than 100 µM and the TGI (MDA-N) was greater than 100 µM.

In the case of `c1ccc2c(CSCc3cccc4ccccc34)cccc2c1`, the TGI (NCI-H23 lung) is reported as greater than 100 µM, the TGI (CCRF-CEM leukemia) is reported as greater than 100 µM and the TGI (NCI-H460 lung) is reported as greater than 100 µM. The TGI (KM12 colon) was greater than 100 µM, the TGI (OVCAR-5 ovarian) was greater than 100 µM and the TGI (786-0 renal) was greater than 100 µM. It also gave a TGI (MDA-MB-231 breast) greater than 100 µM, a TGI (HCT-116 colon) greater than 100 µM and a TGI (BT-549 breast) greater than 100 µM. The TGI (K-562 leukemia) was greater than 100 µM, the TGI (OVCAR-3 ovarian) was greater than 100 µM and the TGI (SN12C renal) was greater than 100 µM. For the same compound, the TGI (IGROV1 ovarian) was greater than 100 µM, the TGI (LOX IMVI melanoma) was greater than 100 µM and the TGI (CAKI-1 renal) was greater than 100 µM. The TGI (HOP-92 NSCLC) was greater than 100 µM, the TGI (SW-620 colon) was greater than 100 µM and the TGI (UACC-257 melanoma) was greater than 100 µM. For the same compound, the TGI (A498 renal) was greater than 100 µM, the TGI (SNB-19 CNS) was greater than 100 µM and the TGI (RXF 393 renal) was greater than 100 µM. The TGI (MDA-MB-435) was greater than 100 µM, the TGI (PC-3 prostate) was greater than 100 µM and the TGI (HCT-15 colon) was greater than 100 µM. For the same compound, the TGI (HOP-62 NSCLC) was greater than 100 µM, the TGI (SNB-75 CNS) was greater than 100 µM and the TGI (DU-145 prostate) was greater than 100 µM. It also gave a TGI (SK-MEL-28 melanoma) greater than 100 µM, a TGI (OVCAR-4 ovarian) greater than 100 µM and a TGI (SK-MEL-2 melanoma) greater than 100 µM. It also gave a TGI (MALME-3M melanoma) greater than 100 µM, a TGI (SF-268 CNS) greater than 100 µM and a TGI (SK-MEL-5 melanoma) greater than 100 µM. It also gave a TGI (SR leukemia) greater than 100 µM, a TGI (TK-10 renal) greater than 100 µM and a TGI (NCI-H226 lung) greater than 100 µM. For the same compound, the TGI (M14 melanoma) was greater than 100 µM, the TGI (ACHN renal) was greater than 100 µM and the TGI (OVCAR-8 ovarian) was greater than 100 µM. The TGI (UACC-62 melanoma) was greater than 100 µM, the TGI (NCI/ADR-RES ovarian) was greater than 100 µM and the TGI (SF-295 CNS) was greater than 100 µM. For the same compound, the TGI (HCC-2998 colon) was greater than 100 µM, the TGI (HS 578T breast) was greater than 100 µM and the TGI (NCI-H522 lung) was greater than 100 µM. For the same compound, the TGI (UO-31 renal) was greater than 100 µM, the TGI (T-47D breast) was greater than 100 µM and the TGI (EKVX NSCLC) was greater than 100 µM. For the same compound, the TGI (U251 CNS) was greater than 100 µM, the TGI (MOLT-4 leukemia) was greater than 100 µM and the TGI (HT29 colon) was greater than 100 µM. For the same compound, the TGI (A549 NSCLC) was greater than 100 µM and the TGI (MDA-N) was greater than 100 µM.

`CC1=C(C(=O)OC2CC3CCC2(C)C3(C)C)C2Nc3ccccc3N(C)C2O1` (configuration not stated) was tested, and the TGI (NCI-H23 lung) was 6.59 µM, the TGI (CCRF-CEM leukemia) was 7.07 µM and the TGI (NCI-H460 lung) was 3.7 µM. The TGI (KM12 colon) was 8.67 µM, the TGI (OVCAR-5 ovarian) was 25.9 µM and the TGI (786-0 renal) was 9.09 µM. The TGI (MDA-MB-231 breast) was 16.9 µM, the TGI (HCT-116 colon) was 7.36 µM and the TGI (BT-549 breast) was 6.43 µM. The TGI (K-562 leukemia) was greater than 29.4 µM, the TGI (OVCAR-3 ovarian) was 11.9 µM and the TGI (SN12C renal) was 4.25 µM. The TGI (IGROV1 ovarian) was 6.97 µM, the TGI (LOX IMVI melanoma) was 6.12 µM and the TGI (CAKI-1 renal) was 10.5 µM. For the same compound, the TGI (HOP-92 NSCLC) was 20.8 µM, the TGI (SW-620 colon) was 6.99 µM and the TGI (UACC-257 melanoma) was 3.3 µM. The TGI (A498 renal) was 18.9 µM, the TGI (RPMI-8226 leukemia) was 6.78 µM and the TGI (SNB-19 CNS) was 10.1 µM. The TGI (RXF 393 renal) was 18.5 µM, the TGI (MDA-MB-435) was 3.13 µM and the TGI (PC-3 prostate) was 12.3 µM. It also gave a TGI (HCT-15 colon) of 5.6 µM, a TGI (HOP-62 NSCLC) of 16.6 µM and a TGI (SNB-75 CNS) of 11.5 µM. It also gave a TGI (DU-145 prostate) of 2.79 µM, a TGI (SK-MEL-28 melanoma) of 16 µM and a TGI (SK-OV-3 ovarian) of 14.5 µM. It also gave a TGI (SK-MEL-2 melanoma) of 7.9 µM, a TGI (HL-60(TB) leukemia) of 4.97 µM and a TGI (SF-268 CNS) of 22.5 µM. It also gave a TGI (SK-MEL-5 melanoma) of 3.53 µM, a TGI (SR leukemia) of 9.52 µM and a TGI (TK-10 renal) of 17.4 µM. For the same compound, the TGI (NCI-H226 lung) was 39.3 µM, the TGI (M14 melanoma) was 3.22 µM and the TGI (ACHN renal) was 11.2 µM. For the same compound, the TGI (OVCAR-8 ovarian) was 9.02 µM, the TGI (COLO 205 colon) was 2.4 µM and the TGI (UACC-62 melanoma) was 4.29 µM. It also gave a TGI (NCI/ADR-RES ovarian) of 12.6 µM, a TGI (SF-295 CNS) of 3.04 µM and a TGI (HCC-2998 colon) of 3.91 µM. It also gave a TGI (HS 578T breast) of 16.3 µM, a TGI (NCI-H522 lung) of 4.02 µM and a TGI (UO-31 renal) of 7.19 µM. It also gave a TGI (T-47D breast) of 11.8 µM, a TGI (EKVX NSCLC) of 21.1 µM and a TGI (U251 CNS) of 16.6 µM. For the same compound, the TGI (MOLT-4 leukemia) was 6.69 µM, the TGI (HT29 colon) was 3.08 µM and the TGI (A549 NSCLC) was 4.53 µM. For the same compound, the TGI (MDA-N) was 3.55 µM.
